These results are taken from patent US20160158200A1, “Combinations of Hepatitis C Virus Inhibitors” (priority 2013, published 2016).

This assay has as its system HCV genotype-1a variant with glutamine 30 changed to glutamate in the NS5A protein. The class given is cell-based. The settings on record: test compound titrated with BMS-790052 fixed at 200 nM; genotype 1a Q30E replicon. Summed up: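 Synergy was assessed by combining several fixed amounts of an NS5A-targeting compound with a titration of the second compound of interest.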
(In general: A replicon is a self-replicating genome or part of one, used to study replication in cells.)

Molecules are shown by their SMILES.

As for `CC1([C@H](NC(=O)C2(C)CCCC[C@@H]2O)c2ncc(-c3ccc(-c4ccc(-c5cnc([C@@H](NC(=O)C6(C)CCCC[C@@H]6O)C6(C)CC6)[nH]5)cc4)cc3)[nH]2)CC1` (some centres unmarked) [Compound Y-116], the “Fold-Synergistic 1a (Q30E)” value is reported as above 100 fold. Turning to `CC(C)CC(=O)NC(c1nc(-c2ccc(-c3ccc(-c4cn(C)c(C(NC(=O)CC(C)C)C(C)C)n4)cc3)cc2)cn1C)C(C)C.O=C(O)C(F)(F)F.O=C(O)C(F)(F)F` (centres unmarked) [Compound Y-18], the “Fold-Synergistic 1a (Q30E)” value was below 10 fold. To `CC(C)(C)C(NC(=O)C1(NC(=O)C2CC2(F)F)CCCCC1)c1nc(-c2ccc(-c3ccc(-c4c[nH]c(C(NC(=O)C5(NC(=O)C6CC6(F)F)CCCCC5)C(C)(C)C)n4)cc3)cc2)c[nH]1` (mixture of isomers) [Compound W-277] belongs above 100 fold; to `Cc1ccc(C)c(C(=O)N[C@H](c2ncc(-c3ccc(-c4ccc(-c5cnc([C@@H](NC(=O)c6cc(C)ccc6C)C(C)C)[nH]5)cc4)cc3)[nH]2)C(C)C)c1` [Compound S-71], above 100 fold. To `COC(=O)NC(C(=O)NC(c1ncc(-c2ccc(-c3ccc(-c4cnc(C5CCCN5C(=O)C(NC(=O)OC)C(C)C)[nH]4)cc3)cc2)[nH]1)C(C)(C)C)C(C)C` (centres unmarked) [Compound B-194] belongs below 10 fold; to `CC(C)(C)OC(=O)CC(C(=O)NC(c1nc(-c2ccc(-c3ccc(-c4c[nH]c(C(NC(=O)C(CC(=O)OC(C)(C)C)C5CCCC5)C(C)(C)C)n4)cc3)cc2)c[nH]1)C(C)(C)C)C1CCCC1` (centres unmarked) [Compound S-272], above 100 fold.

Take `CC(C)(C)[C@H](NC(=O)C(=O)c1cccs1)c1nc(-c2ccc(-c3ccc(-c4c[nH]c([C@@H](NC(=O)C(=O)c5cccs5)C(C)(C)C)n4)cc3)cc2)c[nH]1` [Compound W-19]: the “Fold-Synergistic 1a (Q30E)” value is above 100 fold. For `CC(C)[C@H](NC(=O)C(C)(C)OCC(F)(F)F)c1ncc(-c2ccc(-c3ccc(-c4cnc([C@@H](NC(=O)C(C)(C)OCC(F)(F)F)C(C)C)[nH]4)cc3)cc2)[nH]1` [Compound Y-31], the “Fold-Synergistic 1a (Q30E)” value is above 100 fold. On to `CN(C)C(=N[C@H](c1ncc(-c2ccc(-c3ccc(-c4cnc([C@@H](NC(=O)C(C)(C)C5=CCCCC5)C(C)(C)C)[nH]4)cc3)cc2)[nH]1)C(C)(C)C)N(C)C` [Compound B87], for which the “Fold-Synergistic 1a (Q30E)” value is given as above 100 fold. The value for `COC(=O)NC1CCCCC1C(=O)NC(c1nc(-c2ccc(-c3ccc(-c4c[nH]c(C(NC(=O)C5CCCCC5NC(=O)OC)C(C)(C)C)n4)cc3)cc2)c[nH]1)C(C)(C)C` (mixture of isomers) [Compound S-275] was above 100 fold; that for `CC(C)[C@H](NC(=O)Cc1noc2ccccc12)c1ncc(-c2ccc(-c3ccc(-c4cnc([C@@H](NC(=O)Cc5noc6ccccc56)C(C)C)[nH]4)cc3)cc2)[nH]1` [Compound P-77] was above 100 fold. The value for `COC(C)(CO)C(=O)N[C@H](c1nc(-c2ccc(-c3ccc(-c4c[nH]c([C@@H](NC(=O)C(C)(CO)OC)C(C)(C)C)n4)cc3)cc2)c[nH]1)C(C)(C)C` (some centres unmarked) [Compound W-235] was above 100 fold; that for `CC(C)(C)C(NC(=O)C1COC(=O)N1)c1nc(-c2ccc(-c3ccc(-c4c[nH]c(C(NC(=O)C5COC(=O)N5)C(C)(C)C)n4)cc3)cc2)c[nH]1.O=C(O)C(F)(F)F.O=C(O)C(F)(F)F` [Compound L-9] was above 10 fold. To `CC(C)[C@H](NC(=O)C(=O)C1(C)CCCC1)c1ncc(-c2ccc(-c3ccc(-c4cnc([C@@H](NC(=O)C(=O)C5(C)CCCC5)C(C)C)[nH]4)cc3)cc2)[nH]1` [Compound P-114] belongs above 100 fold; to `CC(C)(C)[C@H](NC(=O)C1(CF)CC1)c1nc(-c2ccc(-c3ccc(-c4c[nH]c([C@@H](NC(=O)C5(CF)CC5)C(C)(C)C)n4)cc3)cc2)c[nH]1` [Compound P-14], above 100 fold; to `CC(C)(F)C(NC(=O)C1CCC(F)(F)CC1)c1nc(-c2ccc(-c3ccc(-c4c[nH]c(C(NC(=O)C5CCC(F)(F)CC5)C(C)(C)F)n4)cc3)cc2)c[nH]1` (single isomer, unassigned) [Compound N-106B], above 100 fold.

With `COCC(NC(=O)C1(C(F)(F)F)CCC1)c1nc(-c2ccc(-c3ccc(-c4c[nH]c(C(COC)NC(=O)C5(C(F)(F)F)CCC5)n4)cc3)cc2)c[nH]1` [Compound L-104], the “Fold-Synergistic 1a (Q30E)” value is given as above 100 fold. To `CC(C)[C@H](NC(=O)[C@@]1(C)CCC(F)(F)CO1)c1nc(-c2ccc(-c3ccc(-c4c[nH]c([C@@H](NC(=O)[C@@]5(C)CCC(F)(F)CO5)C(C)C)n4)c(F)c3)cc2)c[nH]1` [Compound N-132] belongs above 100 fold.

Turning to `CC(C)(C)[C@H](NC(=O)c1cccc(B(O)O)c1)c1nc(-c2ccc(-c3ccc(-c4cnc([C@@H](NC(=O)c5cccc(B(O)O)c5)C(C)(C)C)[nH]4)cc3)cc2)c[nH]1` [Compound B-178], the “Fold-Synergistic 1a (Q30E)” value is given as above 10 fold. `CC(C)[C@H](NC(=O)C1CC(F)(F)C1)c1ncc(-c2ccc(-c3ccc(-c4cnc([C@@H](NC(=O)C5CC(F)(F)C5)C(C)C)[nH]4)cc3)cc2)[nH]1` [Compound P-83]: the “Fold-Synergistic 1a (Q30E)” value is reported as above 100 fold. Turning to `CC(C)(C)OC(=O)N1CCCC1C(=O)N[C@H](c1nc(-c2ccc(-c3ccc(-c4c[nH]c([C@@H](NC(=O)C5CCCN5C(=O)OC(C)(C)C)C(C)(C)C)n4)cc3)cc2)c[nH]1)C(C)(C)C` (some centres unmarked) [Compound W-86], the “Fold-Synergistic 1a (Q30E)” value was above 100 fold. For `CC1([C@H](NC(=O)C(=O)N2CCC(C(F)(F)F)CC2)c2nc(-c3ccc(-c4ccc(-c5c[nH]c([C@@H](NC(=O)C(=O)N6CCC(C(F)(F)F)CC6)C6(C)CC6)n5)cc4)cc3)c[nH]2)CC1` [Compound W-59], the “Fold-Synergistic 1a (Q30E)” value is listed as above 100 fold. The value for `COC1(C(=O)N[C@H](c2nc(-c3ccc(-c4ccc(-c5c[nH]c([C@@H](NC(=O)C6(OC)CCC(F)(F)CC6)C(C)(C)C)n5)cc4)cc3)c[nH]2)C(C)(C)C)CCC(F)(F)CC1` [Compound P-34] was above 100 fold; that for `CCOC(=O)C(=O)N[C@H](c1nc(-c2ccc(-c3ccc(-c4c[nH]c([C@@H](NC(=O)C(=O)OCC)C(C)(C)C)n4)cc3)cc2)c[nH]1)C(C)(C)C` [Compound W-30] was above 100 fold. To `COC(CO)(CC(C)C)C(=O)N[C@H](c1nc(-c2ccc(-c3ccc(-c4c[nH]c([C@@H](NC(=O)C(CO)(CC(C)C)OC)C(C)(C)C)n4)cc3)cc2)c[nH]1)C(C)(C)C` (single isomer, unassigned) [Compound N-160C] belongs above 100 fold; to `CC(C)(C)[C@H](NC(=O)C(C)(O)C1(C)CC1)c1nc(-c2ccc(-c3ccc(-c4c[nH]c([C@@H](NC(=O)C(C)(O)C5(C)CC5)C(C)(C)C)n4)cc3)cc2)c[nH]1` (single isomer, unassigned) [Compound L-93a], above 100 fold. In the case of `CC(C)[C@H](NC(=O)CC1CC1)c1ncc(-c2ccc(-c3ccc(-c4cnc([C@@H](NC(=O)CC5CC5)C(C)C)[nH]4)cc3)cc2)[nH]1` [Compound S-50], the “Fold-Synergistic 1a (Q30E)” value is above 10 fold. To `CC(C)(C)[C@H](NC(=O)c1ncccc1F)c1nc(-c2ccc(-c3ccc(-c4c[nH]c([C@@H](NC(=O)c5ncccc5F)C(C)(C)C)n4)cc3)cc2)c[nH]1` [Compound P-22] belongs above 100 fold; to `CCCOC(=O)N1CCC[C@H]1c1ncc(-c2ccc(-c3ccc(-c4cnc([C@@H]5CCCN5C(=O)OCCC)[nH]4)cc3)cc2)[nH]1` [Compound S-218], above 10 fold. To `COC(CO)(CC(C)C)C(=O)N[C@H](c1nc(-c2ccc(-c3ccc(-c4c[nH]c([C@@H](NC(=O)C(CO)(CC(C)C)OC)C(C)(C)C)n4)cc3)cc2)c[nH]1)C(C)(C)C` (single isomer, unassigned) [Compound N-160B] belongs above 100 fold; to `CC(C)(CO)C(=O)NC(c1nc(-c2ccc(-c3ccc(-c4c[nH]c(C(NC(=O)C(C)(C)CO)C(C)(C)C)n4)cc3)cc2)c[nH]1)C(C)(C)C` [Compound L-56], above 100 fold; to `CN(C(=O)OC(C)(C)C)C1(C(=O)N[C@H](c2nc(-c3ccc(-c4ccc(-c5c[nH]c([C@@H](NC(=O)C6(N(C)C(=O)OC(C)(C)C)CC6)C(C)(C)C)n5)cc4)cc3)c[nH]2)C(C)(C)C)CC1.O=C(O)C(F)(F)F.O=C(O)C(F)(F)F` [Compound L-13], above 100 fold. The value for `CC(C)[C@H](NC(=O)c1cccc(Cl)c1)c1ncc(-c2ccc(-c3ccc(-c4cnc([C@@H](NC(=O)C(C)(C)C)C(C)C)[nH]4)cc3)cc2)[nH]1` [Compound Y-54] was above 100 fold. With `CC(C)[C@H](NC(=O)[C@@]1(C)CCC(F)(F)CO1)c1nc(-c2ccc(-c3ccc(-c4c[nH]c([C@@H](NC(=O)[C@@]5(C)CCC(F)(F)CO5)C(C)C)n4)cc3F)cc2)c[nH]1` [Compound N-133], the “Fold-Synergistic 1a (Q30E)” value is reported as above 100 fold. The value for `CC(C)[C@H](NC(=O)c1cccc(-c2ccccc2)c1)c1ncc(-c2ccc(-c3ccc(-c4cnc([C@@H](NC(=O)c5cccc(-c6ccccc6)c5)C(C)C)[nH]4)cc3)cc2)[nH]1` [Compound S-17] was above 100 fold; that for `Cc1cc(-c2c[nH]c(C3CC[C@H](C)N3C(=O)C(=O)N3CCC(F)(F)CC3)n2)ccc1-c1ccc(-c2c[nH]c(C3CC[C@H](C)N3C(=O)C(=O)N3CCC(F)(F)CC3)n2)cc1` (some centres unmarked) [Compound W-242] was above 100 fold; that for `CC(C)[C@H](NC(=O)C(=O)C1(O)CCC(F)(F)CC1)c1ncc(-c2ccc(-c3ccc(-c4cnc([C@@H](NC(=O)C(=O)C5(O)CCC(F)(F)CC5)C(C)C)[nH]4)cc3)cc2)[nH]1` [Compound P-125] was above 100 fold.

`CC(C)[C@H](NC(=O)C(=O)c1ccncc1F)c1ncc(-c2ccc(-c3ccc(-c4cnc([C@@H](NC(=O)C(=O)c5ccncc5F)C(C)C)[nH]4)cc3)cc2)[nH]1` [Compound P-121]: the “Fold-Synergistic 1a (Q30E)” value is given as above 100 fold.
